Publication PMC8577775, “Small molecule allosteric inhibitors of RORγt block Th17-dependent inflammation and associated gene expression in vivo” (PLoS ONE, 2021)

Legend:
PDAC PDO model T031P [1] = experiment: In vitro organoid formation assay (CellTiter-Glo 3D); format: cell-based; details: Homo sapiens, T031P, treated 24 hr post-plating
Description: Patient derived organoids were established as previously described. Briefly, PDX tumor chunks were minced then enzymatically digested into single cells by using a tumor dissociation Kit (Miltenyi, Cat# 130-095-929). Mouse and human cells were separated through magnetic separation, and isolated tumor cells were cultured on Matrigel-coated dishes. Organoid cultures were maintained by growing on Matrigel in human complete maintenance media: Advanced DMEM/F12 media (Life Technology, Cat# 12634028), 10 mM HEPES (Life Technology, Cat# 15630–080), 1X Glutamax (Life Technology, Cat# 35050–061), 1X Antibiotic-Antimycotic (Life Technology, Cat# 15240–062), 10 mM Nicotinamide (Sigma-Aldrich, Cat# N0636-500G), 250 ng/mL R-Spondin-1 (Peprotech, Cat# 120–38), 100 ng/mL Noggin (Peprotech, Cat# 120-10C), 50 ng/mL EGF (Peprotech, Cat# AF-100-15), 100 ng/mL FGF10 (Peprotech, Cat# 100–26), […] (Sigma-Aldrich, Cat# G9020), 500 nM A83-01 (Sigma, Cat# SML0788), 20 μM Y-27632 (LC Laboratories, Cat# Y-5301), 1X B27 (Life Technology, Cat# 12587010), 10 ng/mL Wnt3a (R&D Systems, Cat# 5036-WN-010), 0.1% Methylcelluose (R&D Systems, Cat# HSC001) and Plasmocin (Invivogen, Cat# Ant-mpp) and were passaged every 10–14 days. Organoids were isolated from Matrigel (Corning, Cat# 08-774-406) in a cell recovery solution (Corning, Cat# CB-40253). Spheroid clusters were then dissociated into a single cell suspension with TrypLE (Gibco, Cat# 12605). […]
(§1) Organoids were isolated and dissociated as described above. Cell numbers were counted by trypan blue exclusion and 5000 cells per well were plated on the Matrigel coated and pre-warmed 96-well plates. […] 100 μl of CellTiter-Glo® 3D reagent (Promega cat# G9682) was added to each well after desired time points and luminescence signal measured after 30 minutes.
(§2) Supplementary file pone.0248034.s010.tif: S6 Fig Schematic of Patient-derived organoids (PDO) growth & formation assays. […] After the indicated treatment schedule organoid growth or formation was assessed by CTG assay. […]

[2] = Intra-tumoral compound concentration, KP/C mouse model; format: in vivo; details: 16 hours post dosing, mean ± SD
Description: In the IMQ-induced inflammation model, whole blood (300–500 μL) was collected and centrifuged (1000 g x 10 min) at 20° C to obtain plasma samples. […] Plasma standard curves were prepared by adding each test compound in to mouse plasma and serial diluting to desired concentration. Blank tumor homogenate and blank plasma was add to plasma standards and tumor homogenate samples, respectively, at 1:1 (v:v) ratio for matrix match of tumor sample analysis. An aliquot of 50 μL of each plasma sample, each tumor sample and each corresponding standards was added to 200 μL of acetonitrile with 100 ng/mL of carbutamide (Sigma Aldrich, St. Louis, MO), internal standard (IS), for protein precipitation, then filtered through a 96-well Orochem filtration plate (Orochem Technologies Inc., Naperville IL). Each extracted test compound in resultant supernatant was analyzed with appropriate liquid chromatography column eluting to a Sciex QTRAP 6500+ LC/MS/MS system (Applied Biosystems, Foster City, CA). Each analyte was characterized by Turbo IonSpray ionization multiple reaction monitoring (MRM). Quantitative drug concentrations were determined by standard calibration curve analysis, using linear fitting with 1/x^2 weighted plot of the analyte/IS peak area ratio vs analyte concentration. […]

PDAC PDO model T031P [3] = experiment: In vitro organoid growth assay (CellTiter-Glo 3D), T031P; format: cell-based, human; details: 30 μM, 120 hours of treatment
Description: Patient derived organoids were established as previously described. Briefly, PDX tumor chunks were minced then enzymatically digested into single cells by using a tumor dissociation Kit (Miltenyi, Cat# 130-095-929). Mouse and human cells were separated through magnetic separation, and isolated tumor cells were cultured on Matrigel-coated dishes. […]
as §1, §2

[4] = tested on: MOG35-55-induced EAE in C57BL/6 mice; experiment: Experimental autoimmune encephalomyelitis (EAE) model; format: in vivo, mouse; details: for EAE clinical score (0-5): vehicle peak 3.08 ± 0.28
Description: EAE studies were conducted at Hooke Laboratories. WT female C57BL/6 mice (Taconic Labs) 9 weeks of age were inoculated on day 0 with MOG35-55 peptide (Hooke Kit™ MOG35-55/CFA Emulsion PTX) (EK-2110, Hooke Laboratories, Lawrence MA) followed by intraperitoneal (IP) injections of pertussis toxin at 2 and 24 hours. Mice were treated twice daily (BID, starting at day 1) per os (PO) with vehicle (0.5% MC/0.25% Tween80) or RORγt inhibitors at indicated doses. FTY720 (Gilenya) was dosed once daily (QD) at 3 mg/kg starting at day 1. EAE clinical scores were evaluated daily and scored from 0–5 according to Hooke Lab EAE scoring guidelines http://hookelabs.com/services/cro/eae/MouseEAEscoring.html. Mean clinical scores & body weight loss were assessed and statistical significance calculated by Wilcoxon’s non-parametric or 2-tailed Student’s t-test, respectively. All studies performed were approved in accordance with the Institutional Animal Care and Use Committee of Bristol Myers Squibb and complied according to Bristol Myers Squibb guidelines.

## O=C(O)[C@@H]1CCC(c2nn(C(=O)c3c(Cl)cccc3C(F)(F)F)c3cccc(F)c23)=C[C@H]1O [Compound 3]
PDAC PDO model T031P [1]; 120 hours
  IC50: 30 µM
PDAC PDO model T031P [1]; 168 hours
  IC50: 10 µM
[2]; in combination with gemcitabine
  tumor concentration: 222 pmol/g
[2]; single agent
  tumor concentration: 47 pmol/g
PDAC PDO model T031P [3]
  decrease of organoid growth: ~ 30%
[4]; 3 mg/kg BID PO
  EAE clinical score (0-5): 2.79 ± 0.25
[4]; 10 mg/kg BID PO
  EAE clinical score (0-5): 2.32 ± 0.21
[4]; 30 mg/kg BID PO, vehicle day 12
  significant disease onset: 15 days
[4]; 30 mg/kg BID PO
  EAE clinical score (0-5): 1.5 ± 0.27
[4]; maintained for the duration of study
  body weight loss in EAE: significant reductions in body weight loss
